Test results: ChEMBL document CHEMBL4396913, “Synthesis and biological evaluation of hybrid quinolone-based quaternary ammonium antibacterial agents” (Eur J Med Chem, 2019)
Converted amounts (≈) assume the structure as drawn.

Experiments:
[1] = test system: Escherichia coli; assay: Bactericidal activity against Escherichia coli ATCC 8739 cultured in MH medium assessed as reduction in bacterial survival incubated for 48 hrs by microbroth dilution method; assay type: functional; conditions: ATCC 8739, 48 h
[2] = test system: Staphylococcus aureus; assay: Bactericidal activity against methicillin resistant Staphylococcus aureus 6347 cultured in MH medium assessed as reduction in bacterial survival incubated for 48 hrs by microbroth dilution method; assay type: functional; conditions: Staphylococcus aureus, 6347, 48 h
[3] = test system: Pseudomonas aeruginosa; assay: Bactericidal activity against Pseudomonas aeruginosa ATCC 9027 cultured in MH medium assessed as reduction in bacterial survival incubated for 48 hrs by microbroth dilution method; assay type: functional; conditions: ATCC 9027, 48 h
[4] = test system: Proteus vulgaris; assay: Antibacterial activity against Proteus vulgaris NCTC 4635 cultured in MH medium assessed as reduction in bacterial growth incubated for 48 hrs by microbroth dilution method; assay type: functional; conditions: NCTC 4635, 48 h
[5] = test system: Enterococcus hirae; assay: Bactericidal activity against Enterococcus hirae ATCC 1052 cultured in BHI medium assessed as reduction in bacterial survival incubated for 48 hrs by microbroth dilution method; assay type: functional; conditions: ATCC 1052, 48 h
[6] = test system: Staphylococcus epidermidis; assay: Bactericidal activity against Staphylococcus epidermidis ATCC 14990 cultured in MH medium assessed as reduction in bacterial survival incubated for 48 hrs by microbroth dilution method; assay type: functional; conditions: ATCC 14990, 48 h
[7] = test system: Staphylococcus aureus; assay: Antibacterial activity against methicillin resistant Staphylococcus aureus N315 cultured in MH medium assessed as reduction in bacterial growth incubated for 48 hrs by microbroth dilution method; assay type: functional; conditions: N315, 48 h
[8] = test system: Staphylococcus aureus; assay: Bactericidal activity against methicillin resistant Staphylococcus aureus N315 cultured in MH medium assessed as reduction in bacterial survival incubated for 48 hrs by microbroth dilution method; assay type: functional; conditions: N315, 48 h
[9] = test system: Streptococcus pneumoniae; assay: Antibacterial activity against Streptococcus pneumoniae cultured in MH medium assessed as reduction in bacterial growth incubated for 48 hrs by microbroth dilution method; assay type: functional
[10] = test system: Proteus vulgaris; assay: Bactericidal activity against Proteus vulgaris NCTC 4635 cultured in MH medium assessed as reduction in bacterial survival incubated for 48 hrs by microbroth dilution method; assay type: functional; conditions: NCTC 4635, 48 h
[11] = test system: Pseudomonas aeruginosa; assay: Antibacterial activity against Pseudomonas aeruginosa ATCC 9027 cultured in MH medium assessed as reduction in bacterial growth incubated for 48 hrs by microbroth dilution method; assay type: functional; conditions: ATCC 9027, 48 h
[12] = test system: Escherichia coli; assay: Antibacterial activity against Escherichia coli ATCC 8739 cultured in MH medium assessed as reduction in bacterial growth incubated for 48 hrs by microbroth dilution method; assay type: functional; conditions: ATCC 8739, 48 h
[13] = test system: Bacillus spizizenii; assay: Antibacterial activity against Bacillus subtilis ATCC 6633 cultured in MH medium assessed as reduction in bacterial growth incubated for 48 hrs by microbroth dilution method; assay type: functional; conditions: ATCC 6633, 48 h
[14] = test system: Streptococcus pneumoniae; assay: Bactericidal activity against Streptococcus pneumoniae cultured in MH medium assessed as reduction in bacterial survival incubated for 48 hrs by microbroth dilution method; assay type: functional
[15] = test system: Staphylococcus aureus; assay: Antibacterial activity against Staphylococcus aureus ATCC 6538 cultured in MH medium assessed as reduction in bacterial growth incubated for 48 hrs by microbroth dilution method; assay type: functional; conditions: ATCC 6538, 48 h
[16] = test system: Serratia marcescens; assay: Antibacterial activity against Serratia marcescens ATCC 12795 cultured in MH medium assessed as reduction in bacterial growth incubated for 48 hrs by microbroth dilution method; assay type: functional; conditions: ATCC 12795, 48 h
[17] = test system: Bacillus spizizenii; assay: Bactericidal activity against Bacillus subtilis ATCC 6633 cultured in MH medium assessed as reduction in bacterial survival incubated for 48 hrs by microbroth dilution method; assay type: functional; conditions: ATCC 6633, 48 h
[18] = test system: Staphylococcus aureus; assay: Bactericidal activity against Staphylococcus aureus ATCC 6538 cultured in MH medium assessed as reduction in bacterial survival incubated for 48 hrs by microbroth dilution method; assay type: functional; conditions: ATCC 6538, 48 h
[19] = test system: Serratia marcescens; assay: Bactericidal activity against Serratia marcescens ATCC 12795 cultured in MH medium assessed as reduction in bacterial survival incubated for 48 hrs by microbroth dilution method; assay type: functional; conditions: ATCC 12795, 48 h
[20] = test system: Staphylococcus aureus; assay: Antibacterial activity against methicillin resistant Staphylococcus aureus 6347 cultured in MH medium assessed as reduction in bacterial growth incubated for 48 hrs by microbroth dilution method; assay type: functional; conditions: Staphylococcus aureus, 6347, 48 h
[21] = test system: Enterococcus hirae; assay: Antibacterial activity against Enterococcus hirae ATCC 1052 cultured in BHI medium assessed as reduction in bacterial growth incubated for 48 hrs by microbroth dilution method; assay type: functional; conditions: ATCC 1052, 48 h
[22] = test system: Staphylococcus epidermidis; assay: Antibacterial activity against Staphylococcus epidermidis ATCC 14990 cultured in MH medium assessed as reduction in bacterial growth incubated for 48 hrs by microbroth dilution method; assay type: functional; conditions: ATCC 14990, 48 h
[23] = test system: Staphylococcus epidermidis; assay: Bactericidal activity against methicillin resistant Staphylococcus epidermidis ATCC 13199 cultured in MH medium assessed as reduction in bacterial survival incubated for 48 hrs by microbroth dilution method; assay type: functional; conditions: ATCC 13199, 48 h
[24] = test system: Staphylococcus epidermidis; assay: Antibacterial activity against methicillin resistant Staphylococcus epidermidis ATCC 13199 cultured in MH medium assessed as reduction in bacterial growth incubated for 48 hrs by microbroth dilution method; assay type: functional; conditions: ATCC 13199, 48 h
[25] = Lipophilicity, log k of the compound at 100 ug/ml by micellar electrokinetic chromatography; assay type: physicochemical
[26] = test system: HEK293; assay: Cytotoxicity against human HEK293 cells assessed as changes in cell morphology upto 20 uM incubated for 72 hrs by MTT assay; assay type: cell-based; conditions: hek293, 72 h
[27] = test system: HEK293; assay: Cytotoxicity against human HEK293 cells assessed as cell viability upto 20 uM incubated for 72 hrs by MTT assay; assay type: cell-based; conditions: hek293, 72 h

Molecule `COc1c(N2C[C@@H]3CCCN[C@@H]3C2)c(F)cc2c(=O)c(C(=O)O)cn(C3CC3)c12` [MOXIFLOXACIN] has an MBC [1] of 0.25 µg/mL (≈ 0.623 µM), an MBC [2] of 0.063 µg/mL (≈ 0.157 µM) and an MBC [3] of 16 µg/mL (≈ 39.9 µM). It also gave an MIC [4] of 0.004 µg/mL (≈ 0.00996 µM), an MBC [5] of 32 µg/mL (≈ 79.7 µM) and an MBC [6] of 0.125 µg/mL (≈ 0.311 µM). It also gave an MIC [7] of 0.125 µg/mL (≈ 0.311 µM), an MBC [8] of 0.25 µg/mL (≈ 0.623 µM) and an MIC [9] of 16 µg/mL (≈ 39.9 µM). The MBC [10] was 0.008 µg/mL (≈ 0.0199 µM), the MIC [11] was 16 µg/mL (≈ 39.9 µM) and the MIC [12] was 0.125 µg/mL (≈ 0.311 µM). It also gave an MIC [13] of 0.032 µg/mL (≈ 0.0797 µM), an MBC [14] of 64 µg/mL (≈ 159 µM) and an MIC [15] of 0.125 µg/mL (≈ 0.311 µM). The MIC [16] was 0.25 µg/mL (≈ 0.623 µM), the MBC [17] was 0.032 µg/mL (≈ 0.0797 µM) and the MBC [18] was 0.125 µg/mL (≈ 0.311 µM). For the same molecule, the MBC [19] was 0.5 µg/mL (≈ 1.25 µM), the MIC [20] was 0.063 µg/mL (≈ 0.157 µM) and the MIC [21] was 16 µg/mL (≈ 39.9 µM). The MIC [22] was 0.063 µg/mL (≈ 0.157 µM).
Molecule `CC1=CC(C)=C(C(=O)O)C2=N[N+]3(CN12)[C@H](C)CN(c1c(F)c(N)c2c(=O)c(C(=O)O)cn(C4CC4)c2c1F)C[C@@H]3C.[Cl-]` (stereo partly drawn) has an MBC [1] of 4 µg/mL, an MBC [2] of 8 µg/mL and an MBC [23] of 4 µg/mL. For the same molecule, the MBC [3] was over 512 µg/mL, the MIC [4] was 1 µg/mL and the MBC [6] was 16 µg/mL. It also gave an MIC [7] of 8 µg/mL, an MBC [8] of 8 µg/mL and an MIC [9] of over 512 µg/mL. It also gave an MIC [24] of 2 µg/mL, an MBC [10] of 2 µg/mL and an MIC [11] of 32 µg/mL. The MIC [12] was 4 µg/mL, the MIC [13] was 2 µg/mL and the MIC [15] was 8 µg/mL. The “log K” value [25] was -0.2606, the MIC [16] was 32 µg/mL and the MBC [17] was 2 µg/mL. The MBC [18] was 16 µg/mL, the MBC [19] was 32 µg/mL and the Activity [26] was “Non-Toxic”. For the same molecule, the Activity [27] was “Non-Toxic”, the MIC [20] was 4 µg/mL and the MIC [21] was over 512 µg/mL. For the same molecule, the MIC [22] was 4 µg/mL.
Molecule `CCn1cc(C(=O)O)c(=O)c2cc(F)c(N3CCNCC3)cc21` [NORFLOXACIN] has an MBC [1] of 0.063 µg/mL (≈ 0.197 µM), an MBC [2] of 1 µg/mL (≈ 3.13 µM) and an MBC [23] of 0.125 µg/mL (≈ 0.391 µM). For the same molecule, the MBC [3] was 0.25 µg/mL (≈ 0.783 µM), the MIC [4] was 0.016 µg/mL (≈ 0.0501 µM) and the MBC [5] was 64 µg/mL (≈ 200 µM). For the same molecule, the MBC [6] was 2 µg/mL (≈ 6.26 µM), the MIC [7] was 1 µg/mL (≈ 3.13 µM) and the MBC [8] was 2 µg/mL (≈ 6.26 µM). The MIC [9] was 128 µg/mL (≈ 401 µM), the MIC [24] was 0.125 µg/mL (≈ 0.391 µM) and the MBC [10] was 0.016 µg/mL (≈ 0.0501 µM). It also gave an MIC [11] of 0.25 µg/mL (≈ 0.783 µM), an MIC [12] of 0.032 µg/mL (≈ 0.1 µM) and an MIC [13] of 0.125 µg/mL (≈ 0.391 µM). The MBC [14] was over 512 µg/mL, the MIC [15] was 0.25 µg/mL (≈ 0.783 µM) and the “log K” value [25] was 0.1033. It also gave an MIC [16] of 0.25 µg/mL (≈ 0.783 µM), an MBC [17] of 0.125 µg/mL (≈ 0.391 µM) and an MBC [18] of 0.25 µg/mL (≈ 0.783 µM). The MBC [19] was 0.25 µg/mL (≈ 0.783 µM), the MIC [20] was 1 µg/mL (≈ 3.13 µM) and the MIC [21] was 64 µg/mL (≈ 200 µM). The MIC [22] was 0.5 µg/mL (≈ 1.57 µM).
Molecule `CCn1cc(C(=O)O)c(=O)c2cnc(N3CC[N+]4(CC3)CN3C(=N4)C(C(=O)O)=Cc4ccccc43)nc21.[Cl-]` has an MBC [1] of 16 µg/mL, an MBC [2] of 256 µg/mL and an MBC [23] of 16 µg/mL. The MBC [3] was 128 µg/mL, the MIC [4] was 16 µg/mL and the MBC [6] was 256 µg/mL. For the same molecule, the MIC [7] was 512 µg/mL, the MBC [8] was 512 µg/mL and the MIC [9] was over 512 µg/mL. For the same molecule, the MIC [24] was 8 µg/mL, the MBC [10] was 16 µg/mL and the MIC [11] was 128 µg/mL. For the same molecule, the MIC [12] was 16 µg/mL, the MIC [13] was 64 µg/mL and the MIC [15] was 512 µg/mL. The “log K” value [25] was -0.4434, the MIC [16] was 128 µg/mL and the MBC [17] was 64 µg/mL. For the same molecule, the MBC [18] was 512 µg/mL, the MBC [19] was 128 µg/mL and the Activity [26] was “Non-Toxic”. The Activity [27] was “Non-Toxic”, the MIC [20] was 256 µg/mL and the MIC [21] was over 512 µg/mL. For the same molecule, the MIC [22] was 256 µg/mL.
With `CCn1cc(C(=O)O)c(=O)c2cnc(N3CC[N+]4(CC3)CN3C(C)=CC(C)=C(C(=O)O)C3=N4)nc21.[Cl-]` the MIC [4] was 256 µg/mL, the MIC [7] was over 512 µg/mL and the MIC [9] was over 512 µg/mL. It also gave an MIC [24] of over 512 µg/mL, an MBC [10] of over 512 µg/mL and an MIC [11] of over 512 µg/mL. The MIC [12] was over 512 µg/mL, the MIC [13] was over 512 µg/mL and the MIC [15] was over 512 µg/mL. For the same molecule, the “log K” value [25] was -0.5725, the MIC [16] was over 512 µg/mL and the Activity [26] was “Non-Toxic”. The Activity [27] was “Non-Toxic”, the MIC [20] was over 512 µg/mL and the MIC [21] was over 512 µg/mL. For the same molecule, the MIC [22] was over 512 µg/mL.
